Results taken from patent US20060045953A1 (priority 2004, published 2006).

Each molecule was assayed against T1, hT1R1/hT1R3 umami receptor (Homo sapiens, UniProt Q7RTX0+Q7RTX1) (assay: In vitro hT1R1/hT1R3 umami taste receptor activation assay (FLIPR, dose response)). Conditions: Table A, Umami Amides; read-out: Umami EC50.
T1 construct: expressed in transfected cells; host or cells: HEK293 derivative stably expressing Gα15, clone I-17, expression induced with mifepristone
T1 sequence (Q7RTX1 21-841): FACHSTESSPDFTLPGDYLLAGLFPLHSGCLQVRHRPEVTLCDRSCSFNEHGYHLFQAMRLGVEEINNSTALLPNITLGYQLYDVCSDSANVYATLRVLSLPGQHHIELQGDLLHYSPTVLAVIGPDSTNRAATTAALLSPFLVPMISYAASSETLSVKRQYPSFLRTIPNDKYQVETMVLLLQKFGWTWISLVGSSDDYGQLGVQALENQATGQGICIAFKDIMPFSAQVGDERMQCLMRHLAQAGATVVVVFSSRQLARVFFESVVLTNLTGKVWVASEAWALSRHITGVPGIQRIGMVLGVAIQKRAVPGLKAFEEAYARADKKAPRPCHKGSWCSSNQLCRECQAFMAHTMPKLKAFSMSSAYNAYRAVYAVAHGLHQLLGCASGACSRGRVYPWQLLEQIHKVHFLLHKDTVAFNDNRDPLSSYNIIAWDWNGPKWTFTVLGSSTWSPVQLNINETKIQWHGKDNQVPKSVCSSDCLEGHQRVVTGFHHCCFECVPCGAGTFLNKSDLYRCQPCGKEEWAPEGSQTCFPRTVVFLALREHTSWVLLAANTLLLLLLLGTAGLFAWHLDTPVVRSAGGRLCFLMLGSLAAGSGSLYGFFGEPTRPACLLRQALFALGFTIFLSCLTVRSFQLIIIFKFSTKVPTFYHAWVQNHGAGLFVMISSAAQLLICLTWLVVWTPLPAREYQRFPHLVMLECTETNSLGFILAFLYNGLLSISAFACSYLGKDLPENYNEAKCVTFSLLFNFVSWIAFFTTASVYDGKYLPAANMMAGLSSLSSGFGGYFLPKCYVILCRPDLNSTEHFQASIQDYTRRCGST
T1 sequence (Q7RTX0 21-852): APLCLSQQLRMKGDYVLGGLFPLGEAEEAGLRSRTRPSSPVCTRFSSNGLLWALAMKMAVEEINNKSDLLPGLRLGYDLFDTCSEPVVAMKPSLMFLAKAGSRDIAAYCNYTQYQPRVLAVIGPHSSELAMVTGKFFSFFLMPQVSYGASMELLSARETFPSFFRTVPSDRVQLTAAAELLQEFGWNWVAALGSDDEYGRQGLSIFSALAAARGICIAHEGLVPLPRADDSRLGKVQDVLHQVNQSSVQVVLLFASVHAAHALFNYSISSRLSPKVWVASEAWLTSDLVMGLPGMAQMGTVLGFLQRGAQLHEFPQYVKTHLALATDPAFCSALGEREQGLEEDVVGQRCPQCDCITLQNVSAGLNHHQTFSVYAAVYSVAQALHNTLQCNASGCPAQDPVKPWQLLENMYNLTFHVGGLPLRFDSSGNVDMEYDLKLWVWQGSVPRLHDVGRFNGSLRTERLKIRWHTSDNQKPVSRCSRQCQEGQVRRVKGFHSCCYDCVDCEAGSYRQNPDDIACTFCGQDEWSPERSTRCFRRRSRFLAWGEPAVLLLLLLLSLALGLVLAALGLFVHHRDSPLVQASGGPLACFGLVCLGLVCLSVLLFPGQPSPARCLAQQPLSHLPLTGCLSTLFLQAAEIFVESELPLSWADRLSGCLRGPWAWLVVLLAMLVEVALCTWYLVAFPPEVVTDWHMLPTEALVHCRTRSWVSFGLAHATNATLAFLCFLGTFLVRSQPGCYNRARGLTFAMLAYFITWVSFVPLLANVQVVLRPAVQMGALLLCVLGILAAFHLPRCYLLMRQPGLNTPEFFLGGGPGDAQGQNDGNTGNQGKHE
Type: cell-based

Q: For `COC(=O)[C@@H](CC(C)C)NC(=O)c1ccc(OC)c(C)c1` [Example A63, (R)-methyl 2-(4-methoxy-3-methylbenzamido)-4-methylpentanoate], which EC50 is on record?
A: 250 nM

Q: `CCOc1ccc(C(=O)NC(CC)CC)cc1C` [Example A64, 4-ethoxy-3-methyl-N-(pentan-3-yl)benzamide] was tested. Which EC50 did it give?
A: 260 nM

Q: For `COC[C@@H](CC(C)C)NC(=O)c1ccc(SC)c(C)c1` [Example A65, (R)-N-(1-methoxy-4-methylpentan-2-yl)-3-methyl-4-(methylthio)benzamide], which EC50 is on record?
A: 290 nM

Q: `COc1ccc(CNC(=O)c2ccncc2-n2cccc2)c(OC)c1` [Example A66, N-(2,4-dimethoxybenzyl)-3-(1H-pyrrol-1-yl)isonicotinamide] was tested. Which EC50 did it give?
A: 290 nM

Q: With `CCCC(CCC)NC(=O)c1ccc(OCC)cc1` [Example A68, 4-ethoxy-N-(heptan-4-yl)benzamide] as the molecule, how does the EC50 read?
A: 320 nM

Q: `COC(=O)[C@@H](CC(C)C)NC(=O)c1ccc(C)cc1` [Example A69, (R)-methyl 4-methyl-2-(4-methylbenzamido)pentanoate] was tested. Which EC50 did it give?
A: 320 nM

Q: With `CCCC(CCC)NC(=O)c1cccc(C(F)(F)F)c1` [Example A70, N-(heptan-4-yl)-3-(trifluoromethyl)benzamide] as the molecule, how does the EC50 read?
A: 330 nM

Q: How did the EC50 turn out when `CCCC(CCC)NC(=O)c1ccc(CC)cc1` [Example A71, 4-ethyl-N-(heptan-4-yl)benzamide] was run?
A: 340 nM

Q: With `CCOc1ccc(C(=O)NC(CC)CC(C)C)cc1C` (stereo not shown) [Example A72, 4-ethoxy-3-methyl-N-(5-methylhexan-3-yl)benzamide] as the molecule, how does the EC50 read?
A: 340 nM

Q: How did the EC50 turn out when `COC(=O)[C@@H](CC(C)C)NC(=O)c1ccc(C)c(OC)c1` [Example A73, (R)-methyl 2-(3-methoxy-4-methylbenzamido)-4-methylpentanoate] was run?
A: 340 nM

Q: With `CCCC(CCC)NC(=O)c1ccc(OC)c(F)c1` [Example A74, 3-fluoro-N-(heptan-4-yl)-4-methoxybenzamide] as the molecule, how does the EC50 read?
A: 350 nM

Q: With `CCCC(CCC)NC(=O)c1ccc(SC)cc1` [Example A75, N-(heptan-4-yl)-4-(methylthio)benzamide] as the molecule, how does the EC50 read?
A: 390 nM

Q: `COc1ccc(C(=O)NC(C)CCc2ccccc2)cc1C` (stereo not shown) [Example A76, 4-methoxy-3-methyl-N-(4-phenylbutan-2-yl)benzamide] was tested. Which EC50 did it give?
A: 400 nM

Q: Which EC50 does the source give for `COc1ccc(C(=O)NC2CCCCC2C)cc1Cl` (stereo not shown) [Example A77, 3-chloro-4-methoxy-N-(2-methylcyclohexyl)benzamide] here?
A: 440 nM

Q: How did the EC50 turn out when `C=Cc1ccc(C(=O)NC(CCC)CCC)cc1` [Example A78, N-(heptan-4-yl)-4-vinylbenzamide] was run?
A: 460 nM

Q: Which EC50 does the source give for `CCCC(CCC)NC(=O)c1ccc(OC)cc1` [Example A79, N-(heptan-4-yl)-4-methoxybenzamide] here?
A: 460 nM

Q: How did the EC50 turn out when `CCCC(C)NC(=O)c1ccc(OC)c(Cl)c1` (stereo not shown) [Example A80, 3-chloro-4-methoxy-N-(pentan-2-yl)benzamide] was run?
A: 470 nM

Q: `CCCC(CC)NC(=O)c1ccc(C)c(SC)c1` (stereo not shown) [Example A81, N-(hexan-3-yl)-4-methyl-3-(methylthio)benzamide] was tested. Which EC50 did it give?
A: 500 nM

Q: With `CCCOc1ccc(C(=O)N[C@H](CC(C)C)C(=O)OC)cc1` [Example A82, (R)-methyl 4-methyl-2-(4-propoxybenzamido)pentanoate] as the molecule, how does the EC50 read?
A: 510 nM

Q: With `CCCC(CCC)NC(=O)c1cccc(C)c1` [Example A83, (heptan-4-yl)-3-methylbenzamide] as the molecule, how does the EC50 read?
A: 520 nM

Q: With `CCCC(CCC)NC(=O)c1cccc(OC)c1O` [Example A84, N-(heptan-4-yl)-2-hydroxy-3-methoxybenzamide] as the molecule, how does the EC50 read?
A: 530 nM

Q: With `COC(=O)[C@@H](CC(C)C)NC(=O)c1cc(C)cc(C)c1` [Example A85, (R)-methyl 2-(3,5-dimethylbenzamido)-4-methylpentanoate] as the molecule, how does the EC50 read?
A: 530 nM

Q: Which EC50 does the source give for `COc1cccc(C(=O)NC2CCCc3ccccc32)c1O` (stereo not shown) [Example A87, 2-hydroxy-3-methoxy-N-(1,2,3,4-tetrahydronaphthalen-1-yl)benzamide] here?
A: 540 nM

Q: Which EC50 does the source give for `CSc1ccc(C(=O)NC(C(C)C)C(C)C)cc1C` [Example A88, N-(2,4-dimethylpentan-3-yl)-3-methyl-4-(methylthio)benzamide] here?
A: 550 nM

Q: Which EC50 does the source give for `COc1ccc([C@@H](C)NC(=O)c2ccc(OC)c(Cl)c2)cc1` [Example A89, (R)-3-chloro-4-methoxy-N-(1-(4-methoxyphenyl)ethyl)benzamide] here?
A: 600 nM

Q: How did the EC50 turn out when `CCCC(CCC)NC(=O)c1cccc(OC)c1` [Example A90, N-(heptan-4-yl)-3-methoxybenzamide] was run?
A: 610 nM

Q: `CCCc1ccc(C(=O)N[C@H](CC(C)C)C(=O)OC)cc1` [Example A91, (R)-methyl 4-methyl-2-(4-propylbenzamido)pentanoate] was tested. Which EC50 did it give?
A: 620 nM

Q: `CCCC(CC(C)C)NC(=O)c1ccc(OCC)c(C)c1` (stereo not shown) [Example A92, 4-ethoxy-3-methyl-N-(2-methylheptan-4-yl)benzamide] was tested. Which EC50 did it give?
A: 650 nM

Q: How did the EC50 turn out when `COc1cccc(C(=O)N[C@H]2CCCc3ccccc32)c1O` [Example A93, (S)-2-hydroxy-3-methoxy-N-(1,2,3,4-tetrahydronaphthalen-1-yl)benzamide] was run?
A: 700 nM

Q: With `COC[C@H](NC(=O)c1ccc(OC)c(C)c1)c1ccccc1` [Example A94, (R)-4-methoxy-N-(2-methoxy-1-phenylethyl)-3-methylbenzamide] as the molecule, how does the EC50 read?
A: 720 nM

Q: With `COC(=O)[C@@H](CC(C)C)NC(=O)c1cc(C)c(OC)c(C)c1` [Example A95, (R)-methyl 2-(4-methoxy-3,5-dimethylbenzamido)-4-methylpentanoate] as the molecule, how does the EC50 read?
A: 740 nM

Q: `CCC(NC(=O)c1ccc(OC)c(C)c1)c1ccc(OC)cc1` (stereo not shown) [Example A96, 4-methoxy-N-(1-(4-methoxyphenyl)propyl)-3-methylbenzamide] was tested. Which EC50 did it give?
A: 760 nM

Q: Which EC50 does the source give for `CCCC(COC)NC(=O)c1ccc(OC)c(C)c1` (stereo not shown) [Example A97, 4-methoxy-N-(1-methoxypentan-2-yl)-3-methylbenzamide] here?
A: 850 nM

Q: Which EC50 does the source give for `COc1ccc(C(=O)NC(CO)CC(C)C)cc1Cl` (stereo not shown) [Example A98, 3-chloro-N-(1-hydroxy-4-methylpentan-2-yl)-4-methoxybenzamide] here?
A: 880 nM

Q: How did the EC50 turn out when `COC(=O)[C@@H](CC(C)C)NC(=O)c1cccc(C)c1` [Example A99, (R)-methyl 4-methyl-2-(3-methylbenzamido)pentanoate] was run?
A: 890 nM

Q: For `COc1ccc(C(=O)NC(C)c2ccc(C)cc2)cc1Cl` (stereo not shown) [Example A100, 3-chloro-4-methoxy-N-(1-p-tolylethyl)benzamide], which EC50 is on record?
A: 1100 nM

Q: Which EC50 does the source give for `CCCC(CCC)NC(=O)c1ccc(OC)cc1O` [Example A101, N-(heptan-4-yl)-2-hydroxy-4-methoxybenzamide] here?
A: 1160 nM

Q: For `Cc1cc(C(=O)NC2CCCc3ccccc32)ccc1O` (stereo not shown) [Example A102, 4-hydroxy-3-methyl-N-(1,2,3,4-tetrahydronaphthalen-1-yl)benzamide], which EC50 is on record?
A: 1320 nM

Q: For `CCOC(=O)[C@H]1CCCC[C@H]1NC(=O)c1ccc(OC)c(Cl)c1` [Example A103, (1S,2R)-ethyl 2-(3-chloro-4-methoxybenzamido)cyclohexanecarboxylate], which EC50 is on record?
A: 1360 nM

Q: For `COc1ccc(CNC(=O)c2ccccc2-c2ccccc2)c(OC)c1` [Example A104, Biphenyl-2-carboxylic acid 2,4-dimethoxy-benzylamide], which EC50 is on record?
A: 1370 nM

Q: How did the EC50 turn out when `C=Cc1ccc(C(=O)N[C@H]2CCCc3ccccc32)cc1` [Example A105, (S)-N-(1,2,3,4-tetrahydronaphthalen-1-yl)-4-vinylbenzamide] was run?
A: 1380 nM

Q: How did the EC50 turn out when `COc1ccc(C(=O)NC2CCc3ccccc32)cc1Cl` (stereo not shown) [Example A106, 3-chloro-N-(2,3-dihydro-1H-inden-1-yl)-4-methoxybenzamide] was run?
A: 1390 nM

Q: How did the EC50 turn out when `COc1ccc2c(c1)CCCC2NC(=O)c1cccc(OC)c1N` (stereo not shown) [Example A107, 2-amino-3-methoxy-N-(6-methoxy-1,2,3,4-tetrahydronaphthalen-1-yl)benzamide] was run?
A: 70 nM
